Laboratory results taken from BindingDB's records for doi:10.1111/cbdd.12131 (University of Pisa, 2013).

Legend:
Adenosine receptor A2a = test: For A1 adenosine receptors, […] of protein were incubated for 60 min at 25°C with [3H]DPCPX 0.5 nM (Kd = 0.4 nM) and increasing concentrations of the compounds, in a final volume of 0.4 mL of Tris-HCl buffer. Binding reaction was terminated by dilution with ice-cold 50 mM Tris-HCl buffer, pH 7.4.For A2A and A3 adenosine receptors, […]
[1] = biological target: Adenosine receptor A1 (rat); test: as above
Adenosine receptor A1 = biological target: T1, Adenosine receptor A1 (Rattus norvegicus, UniProt P25099); test: Radiological Binding Assay; settings: pH 7.4
T1 sequence (P25099 whole entry): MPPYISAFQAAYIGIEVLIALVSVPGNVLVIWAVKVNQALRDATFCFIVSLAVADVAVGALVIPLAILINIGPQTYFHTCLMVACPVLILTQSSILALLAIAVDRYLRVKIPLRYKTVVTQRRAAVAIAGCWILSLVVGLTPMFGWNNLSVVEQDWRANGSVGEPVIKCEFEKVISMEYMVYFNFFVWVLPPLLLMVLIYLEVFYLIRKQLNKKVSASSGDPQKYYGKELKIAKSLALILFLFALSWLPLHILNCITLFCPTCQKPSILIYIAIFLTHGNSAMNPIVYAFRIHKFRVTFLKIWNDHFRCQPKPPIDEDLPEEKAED
Experimental: For A1 adenosine receptors, […] of protein were incubated for 60 min at 25°C with [3H]DPCPX 0.5 nM (Kd = 0.4 nM) and increasing concentrations of the compounds, in a final volume of 0.4 mL of Tris-HCl buffer. Binding reaction was terminated by dilution with ice-cold 50 mM Tris-HCl buffer, pH 7.4.For A2A and A3 adenosine receptors, […] of protein were incubated with [3H]ZM241385 6 nM (Kd = 4 nM) in the experiments involving A2A and with [3H]NECA 15 nM (Kd = 150 nM) involving A3 and the compounds to be assayed, at fixed concentration (10 µM) or at increasing concentrations of the compounds in duplicate, in a final volume of 0.4 mL of Tris-HCl buffer for 120 min at 25°C. Non-specific binding was measured in the presence of 100 µM NECA in the case of A2A and 100 µM R-PIA in the case of A3 binding assay. Bound radioactivity of all samples was measured in a liquid scintillation counter (1600 TR Packard) after the addition of 4 mL of scintillation liquid (Emulsifier-Safe; Hewlett-Packa

Ki (Adenosine receptor A2a)	Ki [1]	Ki (Adenosine receptor A1)	Structure (SMILES)
190 nM	1.4 nM		O=C(Nc1nc(-c2ccccc2)nc2c1nnn2Cc1ccccc1F)C1CCCC1 [N-[9-(ortho-fluorobenzyl)-2-phenyl-9H-8-azapurin-6-yl]-amides (4)]
	43 nM		O=C(Nc1nc(-c2ccccc2)nc2c1nnn2Cc1ccccc1F)c1cccc(Cl)c1 [N-[9-(ortho-fluorobenzyl)-2-phenyl-9H-8-azapurin-6-yl]-amides (8)]
	5.5 nM		O=C(Nc1nc(-c2ccccc2)nc2c1nnn2Cc1ccccc1F)c1cccc(F)c1 [N-[9-(ortho-fluorobenzyl)-2-phenyl-9H-8-azapurin-6-yl]-amides (9)]
292 nM	9.2 nM		O=C(Nc1nc(-c2ccccc2)nc2c1nnn2Cc1ccccc1F)C1CC1 [N-[9-(ortho-fluorobenzyl)-2-phenyl-9H-8-azapurin-6-yl]-amides (2)]
	28 nM		O=C(Nc1nc(-c2ccccc2)nc2c1nnn2Cc1ccccc1F)c1cccc([N+](=O)[O-])c1 [N-[9-(ortho-fluorobenzyl)-2-phenyl-9H-8-azapurin-6-yl]-amides (11)]
	3.8 nM	3.8 nM	Nc1nc(-c2ccccc2)nc2c1nnn2Cc1ccccc1F [9-(ortho-fluorobenzyl)-2-phenyl-azaadenine (1bis)]
413 nM	2.1 nM		O=C(Nc1nc(-c2ccccc2)nc2c1nnn2Cc1ccccc1F)C1CCCCC1 [N-[9-(ortho-fluorobenzyl)-2-phenyl-9H-8-azapurin-6-yl]-amides (5)]
	92 nM		O=C(Nc1nc(-c2ccccc2)nc2c1nnn2Cc1ccccc1F)c1ccc(I)cc1 [N-[9-(ortho-fluorobenzyl)-2-phenyl-9H-8-azapurin-6-yl]-amides (13)]
224 nM	5.5 nM		O=C(Nc1nc(-c2ccccc2)nc2c1nnn2Cc1ccccc1F)c1ccco1 [N-[9-(ortho-fluorobenzyl)-2-phenyl-9H-8-azapurin-6-yl]-amides (6)]
91 nM	2.3 nM		O=C(Nc1nc(-c2ccccc2)nc2c1nnn2Cc1ccccc1F)c1ccoc1 [N-[9-(ortho-fluorobenzyl)-2-phenyl-9H-8-azapurin-6-yl]-amides (7)]
	14 nM		O=C(Nc1nc(-c2ccccc2)nc2c1nnn2Cc1ccccc1F)c1ccc([N+](=O)[O-])cc1 [N-[9-(ortho-fluorobenzyl)-2-phenyl-9H-8-azapurin-6-yl]-amides (12)]
72 nM	0.71 nM		O=C(Nc1nc(-c2ccccc2)nc2c1nnn2Cc1ccccc1F)C1CCC1 [N-[9-(ortho-fluorobenzyl)-2-phenyl-9H-8-azapurin-6-yl]-amides (3)]
	18 nM		Nc1ccc(C(=O)Nc2nc(-c3ccccc3)nc3c2nnn3Cc2ccccc2F)cc1 [N-[9-ortho-fluorobenzyl)-2-phenyl-9H-8-azapurin-6-yl]-amides (15)]
